# Results: ChEMBL document CHEMBL5223155, “Design, synthesis, and evaluation of pyrido.[3,4-b]pyrazin-2(1H)-one derivatives as potent FLT3 inhibitors” (Bioorg Med Chem, 2023)
# Active and inactive are the calls of the source. No cut-off for these calls is given here.
# Assays:
# [1] = molecular target: T1, Receptor-type tyrosine-protein kinase FLT3 (Homo sapiens, UniProt P36888)
# T1 sequence (P36888 whole entry): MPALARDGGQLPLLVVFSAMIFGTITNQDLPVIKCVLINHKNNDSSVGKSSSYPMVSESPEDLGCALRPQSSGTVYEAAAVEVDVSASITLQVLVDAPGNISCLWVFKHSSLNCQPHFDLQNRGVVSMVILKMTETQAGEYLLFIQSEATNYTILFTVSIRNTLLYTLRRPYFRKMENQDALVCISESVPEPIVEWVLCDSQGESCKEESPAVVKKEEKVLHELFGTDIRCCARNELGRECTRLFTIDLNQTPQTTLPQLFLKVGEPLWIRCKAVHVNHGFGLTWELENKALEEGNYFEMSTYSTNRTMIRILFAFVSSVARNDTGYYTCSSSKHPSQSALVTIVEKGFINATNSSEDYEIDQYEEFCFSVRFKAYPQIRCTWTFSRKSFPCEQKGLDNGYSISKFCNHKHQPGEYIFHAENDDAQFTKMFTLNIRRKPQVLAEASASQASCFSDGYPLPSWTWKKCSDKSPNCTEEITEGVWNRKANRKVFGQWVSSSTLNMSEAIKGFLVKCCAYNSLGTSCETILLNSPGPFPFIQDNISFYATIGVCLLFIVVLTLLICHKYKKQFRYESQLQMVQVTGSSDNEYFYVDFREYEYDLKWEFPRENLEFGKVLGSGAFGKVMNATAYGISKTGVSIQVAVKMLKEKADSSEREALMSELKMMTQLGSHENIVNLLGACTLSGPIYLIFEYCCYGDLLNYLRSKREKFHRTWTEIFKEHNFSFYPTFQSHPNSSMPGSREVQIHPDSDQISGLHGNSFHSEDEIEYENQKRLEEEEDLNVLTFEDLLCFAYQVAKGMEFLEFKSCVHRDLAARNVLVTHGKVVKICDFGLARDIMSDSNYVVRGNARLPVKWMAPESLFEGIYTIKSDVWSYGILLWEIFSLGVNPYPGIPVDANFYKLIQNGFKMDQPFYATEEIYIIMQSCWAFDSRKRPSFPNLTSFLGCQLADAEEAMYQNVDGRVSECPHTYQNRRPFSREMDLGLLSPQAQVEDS
# Description: Inhibition of human wild type FLT3 using TK peptide as substrate incubated for 1 hr in presence of ATP by HTRF assay
# [2] = molecular target: Receptor-type tyrosine-protein kinase FLT3 (Homo sapiens, UniProt P36888, D835Y)
# Description: Inhibition of human FLT3 D835Y mutant using TK peptide as substrate incubated for 1 hr in presence of ATP by HTRF assay
# MOLM-13 = test: Antiproliferative activity against human MOLM-13 cells assessed as inhibition of cell growth incubated for 72 hrs by MTS assay; format: functional, cell-based; conditions: MOLM-13, 72 h
# MV4-11 = test: cells; conditions: Homo sapiens, MV4-11, 72 h
# Description: Antiproliferative activity against human MV4-11 cells assessed as inhibition of cell growth incubated for 72 hrs by MTS assay
# BaF3 [3] = test: cells; conditions: Mus musculus, BaF3, 72 h
# Description: Antiproliferative activity against mouse BaF3 cells harboring FLT3-ITD mutant assessed as inhibition of cell growth incubated for 72 hrs by MTS assay
# BaF3 [4] = test: cells; conditions: Mus musculus, BaF3, 72 h; remark: listed apart in the source
# Description: Antiproliferative activity against mouse BaF3 cells harboring FLT3-F691L mutant assessed as inhibition of cell growth incubated for 72 hrs by MTS assay
# BaF3 [5] = test: cells; conditions: Mus musculus, BaF3, 72 h; remark: listed apart in the source
# Description: Antiproliferative activity against mouse BaF3 cells harboring FLT3-D835F mutant assessed as inhibition of cell growth incubated for 72 hrs by MTS assay
# BaF3 [6] = test: cells; conditions: Mus musculus, BaF3, 72 h; remark: listed apart in the source
# Description: Antiproliferative activity against mouse BaF3 cells harboring FLT3-D835V mutant assessed as inhibition of cell growth incubated for 72 hrs by MTS assay
# BaF3 [7] = test: cells; conditions: Mus musculus, BaF3, 72 h; remark: listed apart in the source
# Description: Antiproliferative activity against mouse BaF3 cells harboring FLT3-ITD/D835Y mutant assessed as inhibition of cell growth incubated for 72 hrs by MTS assay
# [8] = Metabolic stability in ICR/CD mouse liver microsomes assessed as compound remaining at 100 uM preincubated with NADPH for 5 mins followed by compound addition and measured upto 90 mins by LC-MS/MS method; format: ADME, Microsome; conditions: time < 95 min, read-out: Stability
# Z-138 = test: Antiproliferative activity against human Z138 cells assessed as inhibition of cell growth incubated for 72 hrs by MTS assay; format: functional, cell-based; conditions: Z-138, 72 h
# HCC1954 = test: Antiproliferative activity against human HCC1954 cells assessed as inhibition of cell growth incubated for 72 hrs by MTS assay; format: functional, cell-based; conditions: HCC1954, 72 h
# [9] = Antiproliferative activity against human MINO cells assessed as inhibition of cell growth incubated for 72 hrs by MTS assay; format: functional, cell-based
# MM1.S = test: Antiproliferative activity against human MM1.S cells assessed as inhibition of cell growth incubated for 72 hrs by MTS assay; format: functional, cell-based
# OCI-AML-3 = test: Antiproliferative activity against human OCI-AML-3 cells assessed as inhibition of cell growth incubated for 72 hrs by MTS assay; format: functional, cell-based; conditions: OCI-AML-3, 72 h
# MOLT-4 = test: Antiproliferative activity against human MOLT-4 cells assessed as inhibition of cell growth incubated for 72 hrs by MTS assay; format: functional, cell-based; conditions: MOLT-4, 72 h
# KG-1 = test: Antiproliferative activity against human KG-1 cells assessed as inhibition of cell growth incubated for 72 hrs by MTS assay; format: functional, cell-based; conditions: KG-1, 72 h
# Rec1 = test: Antiproliferative activity against human REC1 cells assessed as inhibition of cell growth incubated for 72 hrs by MTS assay; format: functional, cell-based; conditions: Rec1, 72 h
# JeKo-1 = test: Antiproliferative activity against human JeKo-1 cells assessed as inhibition of cell growth incubated for 72 hrs by MTS assay; format: functional, cell-based; conditions: JeKo-1, 72 h
# HL-60 = test: Antiproliferative activity against human HL-60 cells assessed as inhibition of cell growth incubated for 72 hrs by MTS assay; format: functional, cell-based; conditions: HL-60, 72 h
# RS4-11 = test: Antiproliferative activity against human RS4-11 cells assessed as inhibition of cell growth incubated for 72 hrs by MTS assay; format: functional, cell-based; conditions: RS4-11, 72 h
# WI-38 = test: Antiproliferative activity against human WI-38 cells assessed as inhibition of cell growth incubated for 72 hrs by MTS assay; format: functional, cell-based; conditions: WI-38, 72 h
# [10] = Antiproliferative activity against human PBMCs assessed as inhibition of cell growth incubated for 72 hrs by MTS assay; format: toxicity, cell-based, PBMC
# [11] = molecular target: Receptor-type tyrosine-protein kinase FLT3 (Homo sapiens) (UniProt P36888); test: Inhibition of FLT3 in human MV4-11 cells assessed as reduction in FLT3 autophosphorylation at Tyr589/591 at 10 to 1000 nM by Western blotting analysis; format: cell-based; conditions: dose 10-1000 nM
# [12] = molecular target: Receptor-type tyrosine-protein kinase FLT3 (Homo sapiens) (UniProt P36888); test: Inhibition of FLT3 in human MV4-11 cells assessed as reduction in STAT5 phosphorylation by Western blotting analysis; format: cell-based; conditions: dose 10-1000 nM
# [13] = molecular target: Receptor-type tyrosine-protein kinase FLT3 (Homo sapiens) (UniProt P36888); test: Inhibition of FLT3 in human MV4-11 cells assessed as reduction in AKT phosphorylation by Western blotting analysis; format: cell-based; conditions: dose 10-1000 nM
# [14] = molecular target: Receptor-type tyrosine-protein kinase FLT3 (Homo sapiens) (UniProt P36888); test: Inhibition of FLT3 in human MV4-11 cells assessed as reduction in ERK phosphorylation by Western blotting analysis; format: cell-based; conditions: dose 10-1000 nM
# [15] = molecular target: Receptor-type tyrosine-protein kinase FLT3 (Homo sapiens) (UniProt P36888); test: Inhibition of FLT3 in human MV4-11 cells assessed as reduction in STAT5 phosphorylation at 100 nM by Western blotting analysis; format: cell-based
# [16] = molecular target: Receptor-type tyrosine-protein kinase FLT3 (Homo sapiens) (UniProt P36888); test: Inhibition of FLT3 in human MV4-11 cells assessed as reduction in ERK phosphorylation at 100 nM by Western blotting analysis; format: cell-based
structure (smiles),measurement,setting,value
Cc1cc(Nc2cc3c(cn2)ncc(=O)n3-c2ccc(N)cc2)ncc1N1CCC(O)CC1,IC50,[1],193 nM
same,IC50,[2],156 nM
Cc1cc(Nc2cc3c(cn2)ncc(=O)n3-c2ccc(N)cc2)ncc1N1C[C@@H](C)N[C@@H](C)C1,IC50,[1],85 nM
same,IC50,[2],33 nM
same,IC50,MOLM-13,191 nM
same,IC50,MV4-11,24 nM
same,IC50,BaF3 [3],681 nM
same,IC50,BaF3 [4],257 nM
same,IC50,BaF3 [5],689 nM
same,IC50,BaF3 [6],70 nM
same,IC50,BaF3 [7],169 nM
CN1CCN(c2ccc(Nc3ccc4ncc(=O)n(-c5ccc(N)cc5)c4n3)nc2)CC1,IC50,[1],2540 nM
same,IC50,[2],6590 nM
CN1CCN(c2ccc(Nc3cc4c(cn3)ncc(=O)n4-c3ccc(N)cc3)cc2)CC1,IC50,[1],2170 nM
same,IC50,[2],2840 nM
CCN1CCN(c2cnc(Nc3cc4c(cn3)ncc(=O)n4-c3ccc(N)cc3)cc2C)CC1,IC50,[1],102 nM
same,IC50,[2],51 nM
same,IC50,MOLM-13,230 nM
same,IC50,MV4-11,31 nM
Cc1cc(Nc2cc3c(cn2)ncc(=O)n3-c2ccc(N)cc2)ncc1N1CCN(C2CC2)CC1,IC50,[1],103 nM
same,IC50,[2],38 nM
same,IC50,MOLM-13,366 nM
same,IC50,MV4-11,36 nM
Cc1cc(Nc2cc3c(cn2)ncc(=O)n3-c2ccc(N)cc2)ncc1N1CCN(C)CC1,IC50,[1],50 nM
same,IC50,[2],41 nM
same,IC50,MOLM-13,254 nM
same,IC50,MV4-11,30 nM
CN1CCN(c2ccc(Nc3cc4c(cn3)ncc(=O)n4-c3cccc(N)c3)nc2)CC1,IC50,[1],915 nM
same,IC50,[2],730 nM
CN1CCN(c2ccc(Nc3ccc4ncc(=O)n(-c5ccc(N)cc5)c4n3)cc2)CC1,IC50,[1],3830 nM
same,IC50,[2],6610 nM
CC(=O)Nc1ccc(-n2c(=O)cnc3cnc(Nc4ccc(N5CCN(C)CC5)cn4)cc32)cc1,IC50,[1],939 nM
same,IC50,[2],582 nM
CN1CCN(c2ccc(Nc3cc4c(cn3)ncc(=O)n4-c3ccc(N(C)C)cc3)nc2)CC1,IC50,[1],747 nM
same,IC50,[2],633 nM
Cc1cc(Nc2cc3c(cn2)ncc(=O)n3-c2ccc(N)cc2)ncc1N1CCC(N)CC1,IC50,[1],72 nM
same,IC50,[2],42 nM
same,IC50,MOLM-13,651 nM
same,IC50,MV4-11,52 nM
CN1CCN(c2ccc(Nc3cc4c(cn3)ncc(=O)n4-c3ccc(NS(C)(=O)=O)cc3)nc2)CC1,IC50,[1],856 nM
same,IC50,[2],685 nM
Cc1cc(Nc2cc3c(cn2)ncc(=O)n3-c2ccc(N)cc2)ncc1N1CCN(C(C)C)CC1,IC50,[1],62 nM
same,IC50,[2],30 nM
same,IC50,MOLM-13,132 nM
same,"remaining at 1.5 h, 100 µM",[8],> 80%
same,IC50,Z-138,1440 nM
same,IC50,HCC1954,11600 nM
same,IC50,[9],1090 nM
same,IC50,MM1.S,1580 nM
same,IC50,OCI-AML-3,6440 nM
same,IC50,MOLT-4,4330 nM
same,IC50,KG-1,2460 nM
same,IC50,Rec1,3920 nM
same,IC50,JeKo-1,1520 nM
same,IC50,HL-60,6500 nM
same,IC50,RS4-11,1400 nM
same,IC50,WI-38,16600 nM
same,IC50 at 72 h,[10],3270 nM
same,inhibition,[11],Active
same,inhibition,[12],Dose-Dependent Effect
same,inhibition,[13],Dose-Dependent Effect
same,inhibition,[14],Dose-Dependent Effect
same,inhibition,[15],100%
same,inhibition,[16],100%
same,IC50,MV4-11,15 nM
same,IC50,BaF3 [3],136 nM
same,IC50,BaF3 [4],40 nM
same,IC50,BaF3 [5],131 nM
same,IC50,BaF3 [6],8 nM
same,IC50,BaF3 [7],26 nM
Cc1cc(Nc2cc3c(cn2)ncc(=O)n3-c2ccc(N)cc2)ncc1N1CCOCC1,IC50,[1],> 10 nM
same,IC50,[2],11700 nM
CC(=O)N1CCN(c2cnc(Nc3cc4c(cn3)ncc(=O)n4-c3ccc(N)cc3)cc2C)CC1,IC50,[1],166 nM
same,IC50,[2],123 nM
Cc1cc(Nc2cc3c(cn2)ncc(=O)n3-c2ccc(N)cc2)ncc1N1CCN(S(C)(=O)=O)CC1,IC50,[1],122 nM
same,IC50,[2],89 nM
same,IC50,MOLM-13,692 nM
same,IC50,MV4-11,68 nM
Cc1cc(Nc2cc3c(cn2)ncc(=O)n3-c2ccc(N)cc2)ncc1N1CCNCC1,IC50,[1],102 nM
same,IC50,[2],34 nM
same,IC50,MOLM-13,436 nM
same,IC50,MV4-11,26 nM
same,IC50,BaF3 [3],3130 nM
same,IC50,BaF3 [4],863 nM
same,IC50,BaF3 [5],3100 nM
same,IC50,BaF3 [6],163 nM
same,IC50,BaF3 [7],633 nM
Cc1cc(Nc2cc3c(cn2)ncc(=O)n3-c2ccc(N)cc2)ncc1N1CCSCC1,IC50,[1],185 nM
same,IC50,[2],89 nM
same,IC50,MOLM-13,881 nM
same,IC50,MV4-11,98 nM
Cc1cc(Nc2cc3c(cn2)ncc(=O)n3-c2ccc(N)cc2)ncc1NC1CCN(C)CC1,IC50,[1],440 nM
same,IC50,[2],343 nM
Cc1cc(Nc2cc3c(cn2)ncc(=O)n3-c2ccc(N)cc2)ncc1N1CCC(F)(F)CC1,IC50,[1],288 nM
same,IC50,[2],120 nM
CC(=O)Nc1ccc(-n2c(=O)cnc3cnc(Nc4ccc(N5CCN(C)CC5)cc4)cc32)cc1,IC50,[1],2720 nM
same,IC50,[2],2440 nM
CN1CCN(c2ccc(Nc3cc4c(cn3)ncc(=O)n4-c3ccc(N)cc3)nc2)CC1,IC50,[1],599 nM
same,IC50,[2],653 nM
CN1CCN(c2ccc(Nc3cc4c(cn3)ncc(=O)n4-c3ccc(CN)cc3)nc2)CC1,IC50,[1],1040 nM
same,IC50,[2],811 nM
